molecular target: BCL6 (Homo sapiens (Human), UniProt P41182); assay: Immunofluorescence high content imaging of BCL6 degradation in T47D cells; format: cell-based; conditions: not given
In short: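 Read-out is BCL6 immunofluorescence quantified by high-content imaging (10×, 4 fields per well) of T47D breast cancer cells. Cells were exposed for 3 days to degrader in an 11-point, 3-fold serial dilution reaching a final top concentration of 0.1 or 1 μM.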

Row | IC50 [nM] | SMILES
1 | ≥ 100 | CNC(=O)COc1cc2cc(Nc3nc(N4CCN(CC5CCN(c6ccc7c(c6)C(=O)N(C6CCC(=O)NC6=O)C7=O)CC5)CC4)c(Cl)cc3Cl)ccc2n(C)c1=O (stereo not drawn) [compound 254, 2-((6-((3,5-dichloro-6-(4-((1-(2-(2,6-dioxopiperidin-3-yl)-1,3-dioxoisoindolin-5-yl)piperidin-4-yl)methyl)piperazin-1-yl)pyridin-2-yl)amino)-1-methyl-2-oxo-1,2-dihydroquinolin-3-yl)oxy)-N-methylacetamide]
2 | 10 to 50 | CNC(=O)COc1cc2cc(Nc3nc(N4CCC(CN5CCN(c6cccc7c6C(=O)N(C6CCC(=O)NC6=O)C7=O)CC5)CC4)ncc3Cl)ccc2n(C)c1=O (stereo not drawn) [compound 260, 2-((6-((5-chloro-2-(4-((4-(2-(2,6-dioxopiperidin-3-yl)-1,3-dioxoisoindolin-4-yl)piperazin-1-yl)methyl)piperidin-1-yl)pyrimidin-4-yl)amino)-1-methyl-2-oxo-1,2-dihydroquinolin-3-yl)oxy)-N-methylacetamide]
3 | ≥ 100 | CNC(=O)COc1cc2cc(Nc3nc(N4CCC(CN5CCC(n6cnc7c(C(=O)NC8CCC(=O)NC8=O)cccc76)CC5)CC4)ncc3Cl)ccc2n(C)c1=O (stereo not drawn) [compound 283, 1-[1-({1-[5-chloro-4-({1-methyl-3-[(methylcarbamoyl)methoxy]-2-oxo-1,2-dihydroquinolin-6-yl}amino)pyrimidin-2-yl]piperidin-4-yl}methyl)piperidin-4-yl]-N-(2,6-dioxopiperidin-3-yl)-1H-1,3-benzodiazole-4-carboxamide]
4 | 50 to 100 | CCn1c(=O)c(OCC(=O)NC)cc2cc(Nc3nc(N4CCO[C@H](COc5ccc6c(c5)C(=O)N(C5CCC(=O)NC5=O)C6=O)C4)ncc3Cl)ccc21 (stereo partly drawn) [compound 294, 2-{[6-({5-chloro-2-[(2S)-2-({[2-(2,6-dioxopiperidin-3-yl)-1,3-dioxo-2,3-dihydro-1H-isoindol-5-yl]oxy}methyl)morpholin-4-yl]pyrimidin-4-yl}amino)-1-ethyl-2-oxo-1,2-dihydroquinolin-3-yl]oxy}-N-methylacetamide]

same assay, conditions: T47D

Row | Dmax [%] | SMILES
5 | ≥ 70 | CNC(=O)COc1cc2cc(Nc3nc(N4CCC(CN5CCN(c6cccc7c6C(=O)N(C6CCC(=O)NC6=O)C7=O)CC5)CC4)ncc3Cl)ccc2n(C)c1=O (stereo not drawn) [compound 260, 2-((6-((5-chloro-2-(4-((4-(2-(2,6-dioxopiperidin-3-yl)-1,3-dioxoisoindolin-4-yl)piperazin-1-yl)methyl)piperidin-1-yl)pyrimidin-4-yl)amino)-1-methyl-2-oxo-1,2-dihydroquinolin-3-yl)oxy)-N-methylacetamide]
6 | < 50 | CCn1c(=O)c(OCC(=O)NC)cc2cc(Nc3nc(N4CCO[C@H](COc5ccc6c(c5)C(=O)N(C5CCC(=O)NC5=O)C6=O)C4)ncc3Cl)ccc21 (stereo partly drawn) [compound 294, 2-{[6-({5-chloro-2-[(2S)-2-({[2-(2,6-dioxopiperidin-3-yl)-1,3-dioxo-2,3-dihydro-1H-isoindol-5-yl]oxy}methyl)morpholin-4-yl]pyrimidin-4-yl}amino)-1-ethyl-2-oxo-1,2-dihydroquinolin-3-yl]oxy}-N-methylacetamide]

same assay, conditions: T47D cells

Row | Dmax [%] | IC50 [nM] | SMILES
7 | 50 to 70 | < 10 | CNC(=O)COc1cc2cc(Nc3nc(N4C[C@@H](C)N(CC5CCN(c6ccc(C(=O)NC7CCC(=O)NC7=O)c(OC)c6)CC5)[C@@H](C)C4)ncc3Cl)ccc2n(C)c1=O (stereo partly drawn) [compound 346, 4-(4-{[(2R,6S)-4-[5-chloro-4-({1-methyl-3-[(methylcarbamoyl)methoxy]-2-oxo-1,2-dihydroquinolin-6-yl}amino)pyrimidin-2-yl]-2,6-dimethylpiperazin-1-yl]methyl}piperidin-1-yl)-N-(2,6-dioxopiperidin-3-yl)-2-methoxybenzamide]
8 | 50 to 70 | < 10 | CNC(=O)COc1cc2cc(Nc3nc(N4CCC(CN5[C@H](C)CN(c6ccc(C(=O)NC7CCC(=O)NC7=O)c(OC)c6)C[C@@H]5C)CC4)ncc3Cl)ccc2n(C)c1=O (stereo partly drawn) [compound 347, 4-[(3R,5S)-4-({1-[5-chloro-4-({1-methyl-3-[(methylcarbamoyl)methoxy]-2-oxo-1,2-dihydroquinolin-6-yl}amino)pyrimidin-2-yl]piperidin-4-yl}methyl)-3,5-dimethylpiperazin-1-yl]-N-(2,6-dioxopiperidin-3-yl)-2-methoxybenzamide]
9 |  | ≥ 100 | CNC(=O)COc1cc2cc(Nc3nc(N4CCC5(CC4)CC(OC4CCN(c6ccc7c(c6)C(=O)N(C6CCC(=O)NC6=O)C7=O)CC4)C5)ncc3Cl)ccc2n(C(C)C)c1=O (stereo not drawn) [compound 392, 2-{[6-({5-chloro-2-[2-({1-[2-(2,6-dioxopiperidin-3-yl)-1,3-dioxo-2,3-dihydro-1H-isoindol-5-yl]piperidin-4-yl}oxy)-7-azaspiro[3.5]nonan-7-yl]pyrimidin-4-yl}amino)-2-oxo-1-(propan-2-yl)-1,2-dihydroquinolin-3-yl]oxy}-N-methylacetamide]
10 | < 50 | < 10 | CCCC(C1CCN(c2ccc3c(c2)C(=O)N(C2CCC(=O)NC2=O)C3=O)CC1)N1CCN(c2ncc(Cl)c(Nc3ccc4c(c3)cc(OCC(=O)NC)c(=O)n4C)n2)CC1 (stereo not drawn) [compound 338, 2-{[6-({5-chloro-2-[4-(1-{1-[2-(2,6-dioxopiperidin-3-yl)-1,3-dioxo-2,3-dihydro-1H-isoindol-5-yl]piperidin-4-yl}butyl)piperazin-1-yl]pyrimidin-4-yl}amino)-1-methyl-2-oxo-1,2-dihydroquinolin-3-yl]oxy}-N-methylacetamide]
11 | ≥ 70 |  | CNC(=O)COc1cc2cc(Nc3nc(N4CCC(CN5CCC6(CC5)CN(c5cccc(C(=O)NC7CCC(=O)NC7=O)c5F)C6)CC4)ncc3Cl)ccc2n(C(C)C)c1=O (stereo not drawn) [compound 419, 3-[7-({1-[5-chloro-4-({3-[(methylcarbamoyl)methoxy]-2-oxo-1-(propan-2-yl)-1,2-dihydroquinolin-6-yl}amino)pyrimidin-2-yl]piperidin-4-yl}methyl)-2,7-diazaspiro[3.5]nonan-2-yl]-N-(2,6-dioxopiperidin-3-yl)-2-fluorobenzamide]
12 | 50 to 70 | < 10 | CNC(=O)COc1cc2cc(Nc3nc(N4CCC(OC5CC6(C5)CN(c5ccc7c(c5)C(=O)N(C5CCC(=O)NC5=O)C7=O)C6)CC4)ncc3Cl)ccc2n(C(C)C)c1=O (stereo not drawn) [compound 362, 2-{[6-({5-chloro-2-[4-({2-[2-(2,6-dioxopiperidin-3-yl)-1,3-dioxo-2,3-dihydro-1H-isoindol-5-yl]-2-azaspiro[3.3]heptan-6-yl}oxy)piperidin-1-yl]pyrimidin-4-yl}amino)-2-oxo-1-(propan-2-yl)-1,2-dihydroquinolin-3-yl]oxy}-N-methylacetamide]

Further lines, the molecule ahead of its results:

Row | SMILES | Dmax [%] | IC50 [nM]
13 | CNC(=O)COc1cc2cc(Nc3nc(N4CCN(CC5CCN(c6ccc7c(c6)C(=O)N(C6CCC(=O)NC6=O)C7=O)CC5)CC4)ncc3Cl)ccc2n(C2CC2)c1=O (stereo not drawn) [compound 323, 2-{[6-({5-chloro-2-[4-({1-[2-(2,6-dioxopiperidin-3-yl)-1,3-dioxo-2,3-dihydro-1H-isoindol-5-yl]piperidin-4-yl}methyl)piperazin-1-yl]pyrimidin-4-yl}amino)-1-cyclopropyl-2-oxo-1,2-dihydroquinolin-3-yl]oxy}-N-methylacetamide] | ≥ 70 | < 10
14 | CNC(=O)COc1cc2cc(Nc3nc(N4CCN(CC5CCN(c6cccc(C(=O)NC7CCC(=O)NC7=O)n6)CC5)CC4)ncc3Cl)ccc2n(C)c1=O (stereo not drawn) [compound 320, 6-[4-({4-[5-chloro-4-({1-methyl-3-[(methylcarbamoyl)methoxy]-2-oxo-1,2-dihydroquinolin-6-yl}amino)pyrimidin-2-yl]piperazin-1-yl}methyl)piperidin-1-yl]-N-(2,6-dioxopiperidin-3-yl)pyridine-2-carboxamide] | < 50 | < 10
15 | CNC(=O)COc1cc2cc(Nc3nc(N4CCN(C(C)(C)C5CCN(c6ccc(C(=O)NC7CCC(=O)NC7=O)c(OC)c6)CC5)CC4)ncc3Cl)ccc2n(C)c1=O (stereo not drawn) [compound 315, 4-[4-(2-{4-[5-chloro-4-({1-methyl-3-[(methylcarbamoyl)methoxy]-2-oxo-1,2-dihydroquinolin-6-yl}amino)pyrimidin-2-yl]piperazin-1-yl}propan-2-yl)piperidin-1-yl]-N-(2,6-dioxopiperidin-3-yl)-2-methoxybenzamide] | 50 to 70 | 10 to 50

same assay, conditions: class symbols A-D, read-out: EC50 (nM)*

Row | DC50 [nM] | SMILES
16 | > 100 | CNC(=O)COc1cc2cc(Nc3nc(N4CCC(OCCOCCOCCOCCOCCNc5cccc6c5C(=O)N(C5CCC(=O)NC5=O)C6=O)CC4)ncc3Cl)ccc2n(C)c1=O (stereo not drawn) [compound 69, 2-((6-((5-chloro-2-(4-((14-((2-(2,6-dioxopiperidin-3-yl)-1,3-dioxoisoindolin-4-yl)amino)-3,6,9,12-tetraoxatetradecyl)oxy)piperidin-1-yl)pyrimidin-4-yl)amino)-1-methyl-2-oxo-1,2-dihydroquinolin-3-yl)oxy)-N-methylacetamide]
17 | > 100 | CNC(=O)COc1cc2cc(Nc3nc(N4CCC(OCCOc5cc(-c6scnc6C)ccc5CNC(=O)[C@@H]5C[C@@H](O)CN5C(=O)C(c5cc(C)no5)C(C)C)CC4)ncc3Cl)ccc2n(C)c1=O (stereo partly drawn) [compound 56, (2S,4R)—N-(2-(2-((1-(5-chloro-4-((1-methyl-3-(2-(methylamino)-2-oxoethoxy)-2-oxo-1,2-dihydroquinolin-6-yl)amino)pyrimidin-2-yl)piperidin-4-yl)oxy)ethoxy)-4-(4-methylthiazol-5-yl)benzyl)-4-hydroxy-1-(3-methyl-2-(3-methylisoxazol-5-yl)butanoyl)pyrrolidine-2-carboxamide]
18 | > 100 | CN1C(=O)CCc2cc(Nc3cc(OC4CCN(C(=O)COCCOc5ccc6c(c5)C(=O)N(C5CCC(=O)NC5=O)C6=O)CC4)c([N+](=O)[O-])cc3Cl)ccc21 (stereo not drawn) [compound 76, 5-(2-(2-(4-(4-chloro-5-((1-methyl-2-oxo-1,2,3,4-tetrahydroquinolin-6-yl)amino)-2-nitrophenoxy)piperidin-1-yl)-2-oxoethoxy)ethoxy)-2-(2,6-dioxopiperidin-3-yl)isoindoline-1,3-dione]
19 | 50 to 100 | CNC(=O)COc1cc2cc(Nc3nc(N4CCC(OCCOCCOCCOCCOCCOc5ccc6c(c5)CN(C5CCC(=O)N(C)C5=O)C6=O)CC4)ncc3Cl)ccc2n(C)c1=O (stereo not drawn) [compound 87, 2-((6-((5-chloro-2-(4-((14-((2-(1-methyl-2,6-dioxopiperidin-3-yl)-1-oxoisoindolin-5-yl)oxy)-3,6,9,12-tetraoxatetradecyl)oxy)piperidin-1-yl)pyrimidin-4-yl)amino)-1-methyl-2-oxo-1,2-dihydroquinolin-3-yl)oxy)-N-methylacetamide]
20 | > 100 | CN(C)C(=O)COc1cc2cc(Nc3nc(N4CCC(OCCOCCOCCOCCOCCOc5ccc6c(c5)CN(C5CCC(=O)NC5=O)C6=O)CC4)ncc3Cl)ccc2n(C)c1=O (stereo not drawn) [compound 99, 2-((6-((5-chloro-2-(4-((14-((2-(2,6-dioxopiperidin-3-yl)-1-oxoisoindolin-5-yl)oxy)-3,6,9,12-tetraoxatetradecyl)oxy)piperidin-1-yl)pyrimidin-4-yl)amino)-1-methyl-2-oxo-1,2-dihydroquinolin-3-yl)oxy)-N,N-dimethylacetamide]
